This note sets out measurements from BindingDB's records for doi:10.1111/j.1747-0285.2011.01270.x (National Institutes of Health, 2012).

This assay addresses T1, Gag-Pol polyprotein [1148-1435] (Human immunodeficiency virus 1, UniProt P04585).
T1 construct: 1148-1435
Nature of the assay: In Vitro Integrase Assay. The protocol: The compound were evaluated in biochemical IN (integrase) assay that measure inhibitory potency (IC50 values)against both the 3'-processing(3'P)and strand transfer(ST)reaction.
For orientation: IC50 means the point on the concentration scale where inhibition reaches its midpoint. `CC(=O)OCc1c2c(c(O)c(=O)n1C(C)C)C(=O)N(Cc1ccc(F)c(Cl)c1)C2=O` [Bicyclic hydroxy-1H-pyrrolopyridine-trione, 5d] gave a half-maximal inhibitory concentration (IC50) of 15.6 µM.

`Cc1c2c(c(O)c(=O)n1-c1ccccc1)C(=O)N(Cc1ccc(F)c(Cl)c1)C2=O` [Bicyclic hydroxy-1H-pyrrolopyridine-trione, 5b] returned a 50% inhibitory concentration (IC50) of 6.4 µM.

As to `Cc1c2c(c(O)c(=O)n1C)C(=O)N(Cc1ccc(F)c(Cl)c1)C2=O` [Bicyclic hydroxy-1H-pyrrolopyridine-trione, 5a], the IC50 came to 6.7 µM.

Take `CC(C)Cc1c2c(c(O)c(=O)n1C(C)C)C(=O)N(Cc1ccc(F)c(Cl)c1)C2=O` [Bicyclic hydroxy-1H-pyrrolopyridine-trione, 5c]: the IC50 came to 21.6 µM.

Take `O=C1c2c(CO)[nH]c(=O)c(O)c2C(=O)N1Cc1ccc(F)c(Cl)c1` [Bicyclic hydroxy-1H-pyrrolopyridine-trione, 5g]: inhibition was half-maximal at 6.5 µM (IC50).

`CC(=O)OCc1[nH]c(=O)c(O)c2c1C(=O)N(Cc1ccc(F)c(Cl)c1)C2=O` [Bicyclic hydroxy-1H-pyrrolopyridine-trione, 5f] returned a half-inhibitory concentration (IC50) of 12.3 µM.

Turning to `COC(=O)CCc1c2c(c(O)c(=O)n1C(C)C)C(=O)N(Cc1ccc(F)c(Cl)c1)C2=O` [Bicyclic hydroxy-1H-pyrrolopyridine-trione, 5e], the IC50 was found to be 7.1 µM.
